Assays:
H460 cells [1] = experiment: apoptosis by flow cytometry (annexin V / propidium iodide) in H460 cells; assay type: cell-based, human; details: H460, 10 μM 5MPN
Description: Flow Cytometry: To measure apoptosis, cells were stained with annexin V and propidium iodide and examined as previously described. […] DMSO used as vehicle. For cell cycle experiments, cells were detached, washed with cold PBS and fixed in 70% ethanol (4° C. 30 minutes). The cells then were pelleted by centrifugation, resuspended in PBS containing PI and RNase A, incubated at 37° C. in the dark for 30 minutes and analyzed by flow cytometry (BD FACSCalibur). Data were analyzed using FlowJo software (TREE STAR Inc.). Results were calculated as the mean±SD of three experiments.

Lewis lung carcinomas = experiment: Lewis lung carcinoma tumor growth in mice; assay type: in vivo, C57BL/6 mice
[2] = two-week oral toxicity study; assay type: in vivo; details: C57BL/6 mice, 120 mg/kg PO for two weeks
Description: Given the potential usefulness of oral administration in terms of cost and convenience, we elected to pursue this route in subsequent toxicity and efficacy pre-clinical studies. Initially, we dosed C57BL/6 mice with 120 mg/kg PO for two weeks and analyzed the effect on complete blood counts, electrolytes, hepatic and renal function, body mass and the gross and histological appearance of the brain, heart, lungs, liver, kidneys and spleen. […] Next, the effects of oral administration of 5MPN on intratumoral F2,6BP and glucose uptake by LLC xenografts was examined. […] It was confirmed that 5MPN caused a G1 arrest in LLC cells in vitro similar to H460 cells (FIG. 4G). The number of Ki67-positive cells was examined since Ki-67 expression correlates with later S and G2 phases of the cell cycle (Sasaki K et al. The cell cycle associated change of the Ki-67 reactive nuclear antigen expression. J Cell Physiol 1987 December; 133(3):579-84).

[3] = system: PFKFB4−/− lung fibroblasts; experiment: cell counts of tamoxifen-inducible PFKFB4-/- lung fibroblasts; assay type: cell-based, mice; details: 4HT-induced deletion, 10 μM 5MPN, 24 hours
Source text: (§1) Cell lines and cell culture: H460, H1299, H441, H522 and A549 non-small cell lung cancer (NSCLC), MDA-MB-231 (breast), LNCaP (prostatic) and HCT116 (colon) adenocarcinoma and Lewis lung carcinoma (LLC) cell lines were obtained from ATCC and used within 6 months of acquisition, PFKFB4^7 ear pinna Fibroblasts isolated from TamCre/loxP/PFKFB4^−/− mice were immortalized as described previously (Chesney J et al. Fructose-2,6-bisphosphate synthesis by 6-phosphofructo-2-kinase/fructose-2,6-bisphosphatase 4 (PFKFB4) is required for the glycolytic response to hypoxia and tumor growth. Oncotarget 2014 Aug. 30; 5(16):6670-86). Normal bronchial epithelial cells (NHBE) were obtained from Lonza and NHBE cells expressing telomerase, SV40 large T antigen and activated Ras (hT/LT/Ras) were a gift from Dr. B. J. Rollins, Dana Farber Cancer Institute. All cell lines were tested and found negative for mycoplasma (PCR Mycoplasma Detection Kit, ABM). […]
(§2) Cell Viability: Cells were incubated in 20% trypan blue (Sigma) for 5 minutes. Cells excluding trypan blue were counted using a standard hemocytometer (Hausser Scientific) to determine total numbers of viable cells. Data are expressed as mean±SD of three experiments.

PFKFB3 = PFKFB3 (Homo sapiens, UniProt Q16875); experiment: kinase activity of PFKFB3; assay type: biochemical; details: 10 μM
Sequence of PFKFB3 (Q16875 whole entry, species assumed): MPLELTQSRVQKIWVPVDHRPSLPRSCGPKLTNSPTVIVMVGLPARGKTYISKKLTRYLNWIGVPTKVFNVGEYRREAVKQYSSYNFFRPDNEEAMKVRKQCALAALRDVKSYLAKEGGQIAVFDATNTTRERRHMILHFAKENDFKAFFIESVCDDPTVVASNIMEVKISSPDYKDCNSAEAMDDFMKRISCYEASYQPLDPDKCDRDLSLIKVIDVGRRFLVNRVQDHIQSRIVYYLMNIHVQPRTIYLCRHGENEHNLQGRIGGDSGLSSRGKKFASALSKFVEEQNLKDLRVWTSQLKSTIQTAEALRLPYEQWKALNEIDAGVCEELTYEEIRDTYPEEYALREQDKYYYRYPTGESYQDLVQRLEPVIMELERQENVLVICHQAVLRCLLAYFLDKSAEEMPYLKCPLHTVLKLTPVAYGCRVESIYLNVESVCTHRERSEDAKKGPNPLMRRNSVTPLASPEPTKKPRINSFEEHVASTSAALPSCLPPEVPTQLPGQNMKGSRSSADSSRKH

NHBE cells = experiment: viable cell count of normal human bronchial epithelial cells; assay type: cell-based; details: 48 hours
Source text: as §1, §2

H460 cells [4] = experiment: F2,6BP measurements in H460 cells; assay type: cell-based, human
Description: F2,6BP measurements: Cells or tissues were prepared as previously described and F2,6BP content measured using a coupled enzyme reaction following the method of Van Schaftingen et at (Van Schaftingen E et al. A kinetic study of pyrophosphate: fructose-6-phosphate phosphotransferase from potato tubers. Application to a microassay of fructose 2,6-bisphosphate. Eur J Biochem 1982 December; 129(1): 191-5) and normalized to total cellular protein measured by the bicinchoninic acid assay (BCA, Thermo Scientific). […] In order to measure F2,6BP, cells were harvested, washed with PBS, lysed in NaOH/Tris acetate by heating at 80° C. and lysates neutralized to pH 7.2. F2,6BP content was measured using a coupled enzyme reaction following the method of Van Schaftingen et al (Eur J Biochem. 1982; 129(1): 191-195). The F2,6BP concentration was normalized to total cellular protein measured by the bicinchoninic acid assay (BCA, Thermo Scientific) All data are expressed as the mean±SD of three experiments. Statistical significance was assessed by the two-sample t test (independent variable).

COc1cccc2c(NCCCCCO[N+](=O)[O-])ccnc12 [5MPN, 5-[(8-methoxyquinolin-4-yl)amino]pentyl nitrate]
apoptotic cells (H460 cells [1]): minimal increase | body weight (Lewis lung carcinomas; LLC-bearing C57BL/6 mice, 120 mg/kg oral daily): without affecting body weight | tumor growth of Lewis lung carcinomas (Lewis lung carcinomas; syngeneic C57BL/6 mice, 120 mg/kg daily by gavage, two weeks): suppressed the growth | toxicity: blood counts, electrolytes, hepatic and renal function, body mass, organ histology, behavioral or clinical changes [2]: no signs of toxicity | anti-proliferative effect with genomic deletion of Pfkfb4 [3]: sensitized | inhibition of PFKFB3 kinase activity (PFKFB3): no inhibition of kinase activity | cell growth, live cells (NHBE cells): virtually unaffected | intracellular concentration of F2,6BP (H460 cells [4]; H460, 10 μM 5MPN, 6-72 hours): reduced | reduction in F2,6BP with over-expression of PFKFB4 (H460 cells [4]; H460 transfected with PFKFB4, 10 μM 5MPN, 24 hours): reversed
